Results published in ChEMBL document CHEMBL5532665 (J Med Chem, 2024).
Calls of active or inactive are those of the source. The rule behind the calls is not given here.

Key:
[1] = target: T1, Mu-type opioid receptor (Homo sapiens, UniProt P35372); assay: Agonist activity at human MOR expressed in CHO-K1 cells co-expressing G-alpha15 by calcium mobilization assay relative to control; assay type: functional, cell-based; details: filed as agonist
[2] = test system: Mus musculus; assay: Antinociceptive activity in Kunming mouse model assessed as latency of tail withdrawal at 1312 nmol/kg, sc measured for 120 mins by tail-flick test relative to control; assay type: functional; details: 2 h
[3] = target: T2, Delta-type opioid receptor (Homo sapiens, UniProt P41143); assay: Agonist activity at human DOR expressed in CHO-K1 cells co-expressing G-alpha15 by calcium mobilization assay relative to control; assay type: functional, cell-based; details: filed as agonist
[4] = test system: Mus musculus; assay: Antinociceptive activity in Kunming mouse model assessed as latency of tail withdrawal at 1312 nmol/kg, sc measured for 30 mins by tail-flick test relative to control; assay type: functional; details: 0.5 h
[5] = test system: Mus musculus; assay: Antinociceptive activity in Kunming mouse model assessed as latency of tail withdrawal at 1312 nmol/kg, sc measured for 60 mins by tail-flick test relative to control; assay type: functional; details: 1 h
[6] = test system: Mus musculus; assay: Antinociceptive activity in Kunming mouse model assessed as latency of tail withdrawal at 1312 nmol/kg, sc measured for 10 mins by tail-flick test relative to control; assay type: functional
[7] = target: T2, Delta-type opioid receptor; assay: Agonist activity at human DOR expressed in CHO-K1 cells co-expressing G-alpha15 by calcium mobilization assay; assay type: functional, cell-based
[8] = target: T1, Mu-type opioid receptor; assay: Agonist activity at human MOR expressed in CHO-K1 cells co-expressing G-alpha15 by calcium mobilization assay; assay type: functional, cell-based
[9] = test system: Mus musculus; assay: Antinociceptive activity in Kunming mouse model at 13.9 nmol/kg, sc in presence of NTI by tail-flick test; assay type: functional, organism-based
[10] = test system: Mus musculus; assay: Antinociception activity in Kunming mouse model assessed as analgesic effect at 13.9 nmol/kg, sc administered daily measured for 8 days by tail-flick test; assay type: functional, organism-based; details: time 8.0 day
[11] = test system: Mus musculus; assay: Antinociceptive activity in Kunming mouse model at 13.9 nmol/kg, sc pretreated with NALM intracerebroventricularly followed by compound administration by tail-flick test; assay type: functional, organism-based
[12] = test system: Mus musculus; assay: Antinociceptive activity in Kunming mouse model assessed as increase in analgesic effect at 0.14 to 13.9 nmol/kg, sc measured for 180 to 360 mins by tail-flick test; assay type: functional, organism-based; details: dose 0.14-13.9 nmol/kg, time 180-360 min
[13] = test system: Mus musculus; assay: Rewarding affect in Kunming mouse model at 139 nmol/kg, sc pre-exposed to place conditioning for 3 days followed by compound administration and further re-exposed to place conditioning measured on day 5 by unbiased CPP method; assay type: functional, organism-based; details: time 2.0 day
[14] = test system: Mus musculus; assay: Antinociceptive activity in Kunming mouse model at 13.9 nmol/kg, sc in presence of beta-FNA by tail-flick test; assay type: functional, organism-based
[15] = test system: Mus musculus; assay: Antinociceptive activity in Kunming mouse model at 13.9 nmol/kg, sc in presence of nor-BNI by tail-flick test; assay type: functional, organism-based
[16] = target: T3, Kappa-type opioid receptor (Homo sapiens, UniProt P41145); assay: Agonist activity at human KOR expressed in CHO-K1 cells co-expressing G-alpha15 by calcium mobilization assay relative to control; assay type: functional, cell-based; details: filed as agonist
[17] = test system: Mus musculus; assay: Antinociceptive activity in Kunming mouse model at 13.9 nmol/kg, sc pretreated with NALM subcutaneously followed by compound administration by tail-flick test; assay type: functional, organism-based
[18] = test system: Mus musculus; assay: Induction of physical dependence in Kunming mouse model assessed as jumping behavior at 2.5 to 125 nmol/kg, sc administered as 7 escalating doses with 8 hr-intervals in-between followed by Nal administration post-2 hrs of last compound dose and further measured for 30 mins by withdrawal assay; assay type: functional, organism-based; details: dose 2.5-125 nmol/kg, time 50.5 hrs
[19] = test system: Mus musculus; assay: Antinociceptive activity in Kunming mouse model assessed as latency of tail withdrawal at 13.9 nmol/kg, sc measured for 60 mins by tail-flick test relative to control; assay type: functional; details: 1 h
[20] = test system: Mus musculus; assay: Antinociceptive activity in Kunming mouse model assessed as latency of tail withdrawal at 13.9 nmol/kg, sc measured for 120 mins by tail-flick test relative to control; assay type: functional; details: 2 h
[21] = test system: Mus musculus; assay: Antinociceptive activity in Kunming mouse model administered subcutaneously by tail-flick test; assay type: functional; details: route sc
[22] = test system: Mus musculus; assay: Induction of physical dependence in Kunming mouse model assessed as jumping behavior at 5.5 to 275 nmol/kg, sc administered as 7 escalating doses with 8 hr-intervals in-between followed by Nal administration post-2 hrs of last compound dose and further measured for 30 mins by withdrawal assay; assay type: functional, organism-based; details: dose 5.5-275 nmol/kg, time 50.5 hrs
[23] = test system: Mus musculus; assay: Antinociceptive activity in Kunming mouse model assessed as latency of tail withdrawal at 13.9 nmol/kg, sc measured for 10 mins by tail-flick test relative to control; assay type: functional
[24] = test system: Mus musculus; assay: Antinociceptive activity in Kunming mouse model assessed as latency of tail withdrawal at 13.9 nmol/kg, sc measured for 30 mins by tail-flick test relative to control; assay type: functional; details: 0.5 h
[25] = test system: Mus musculus; assay: Antinociceptive activity in Kunming mouse model administered subcutaneously measured for 5 to 15 mins by acetic acid-induced writhing test; assay type: functional; details: route sc, time 5-15 min
[26] = Stability in mouse plasma assessed as half life at 0.01 mol/L measured for 72 hrs by RP-HPLC analysis; assay type: ADME, cell-free
[27] = target: T3, Kappa-type opioid receptor; assay: Agonist activity at human KOR expressed in CHO-K1 cells co-expressing G-alpha15 by calcium mobilization assay; assay type: functional, cell-based; details: cho-k1
[28] = test system: Mus musculus; assay: Antinociceptive activity in Kunming mouse model assessed as latency of tail withdrawal at 1362 nmol/kg, sc measured for 60 mins by tail-flick test relative to control; assay type: functional; details: 1 h
[29] = test system: Mus musculus; assay: Antinociceptive activity in Kunming mouse model assessed as latency of tail withdrawal at 1362 nmol/kg, sc measured for 30 mins by tail-flick test relative to control; assay type: functional; details: 0.5 h
[30] = test system: Mus musculus; assay: Antinociceptive activity in Kunming mouse model assessed as latency of tail withdrawal at 1362 nmol/kg, sc measured for 10 mins by tail-flick test relative to control; assay type: functional
[31] = test system: Mus musculus; assay: Antinociceptive activity in Kunming mouse model assessed as latency of tail withdrawal at 1362 nmol/kg, sc measured for 120 mins by tail-flick test relative to control; assay type: functional; details: 2 h

T1 sequence (P35372 whole entry): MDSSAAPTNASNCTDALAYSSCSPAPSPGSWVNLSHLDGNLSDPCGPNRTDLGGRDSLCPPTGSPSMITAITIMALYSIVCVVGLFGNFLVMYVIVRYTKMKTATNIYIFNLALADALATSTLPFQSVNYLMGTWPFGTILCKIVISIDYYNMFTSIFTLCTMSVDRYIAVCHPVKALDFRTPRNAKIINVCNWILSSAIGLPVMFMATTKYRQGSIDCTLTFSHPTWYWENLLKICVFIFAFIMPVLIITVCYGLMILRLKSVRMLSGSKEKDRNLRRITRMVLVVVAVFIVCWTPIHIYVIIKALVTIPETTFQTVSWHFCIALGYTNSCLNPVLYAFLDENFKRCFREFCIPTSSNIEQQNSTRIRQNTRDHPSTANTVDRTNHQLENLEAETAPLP
T3 sequence (P41145 whole entry): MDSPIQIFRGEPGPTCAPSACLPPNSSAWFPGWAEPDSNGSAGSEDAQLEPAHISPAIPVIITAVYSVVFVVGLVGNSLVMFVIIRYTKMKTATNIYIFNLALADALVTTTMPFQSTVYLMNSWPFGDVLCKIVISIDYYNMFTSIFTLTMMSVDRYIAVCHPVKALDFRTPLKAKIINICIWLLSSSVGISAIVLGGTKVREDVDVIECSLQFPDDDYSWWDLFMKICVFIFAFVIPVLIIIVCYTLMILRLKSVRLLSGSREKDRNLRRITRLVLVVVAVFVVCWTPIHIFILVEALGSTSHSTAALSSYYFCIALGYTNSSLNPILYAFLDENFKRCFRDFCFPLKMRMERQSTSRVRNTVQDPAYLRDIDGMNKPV
T2 sequence (P41143 whole entry): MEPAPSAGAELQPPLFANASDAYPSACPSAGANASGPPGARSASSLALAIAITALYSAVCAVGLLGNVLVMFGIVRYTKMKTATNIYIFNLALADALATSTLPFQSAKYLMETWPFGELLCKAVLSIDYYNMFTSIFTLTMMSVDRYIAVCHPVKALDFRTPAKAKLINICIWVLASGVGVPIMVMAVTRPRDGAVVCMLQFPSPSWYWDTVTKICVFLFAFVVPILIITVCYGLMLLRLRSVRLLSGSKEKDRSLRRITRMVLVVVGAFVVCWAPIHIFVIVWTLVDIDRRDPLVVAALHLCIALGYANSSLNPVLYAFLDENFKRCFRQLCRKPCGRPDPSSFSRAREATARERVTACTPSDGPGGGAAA

SMILES: CCCC[C@@H]1NC(=O)[C@H](NC(=O)[C@@H](N)Cc2ccc(O)cc2)CCCCNC(=O)C[C@H](C(=O)N2CCC[C@H]2C(N)=O)NC(=O)[C@H](Cc2ccccc2)NC1=O
- Emax [1]: 88.6%
- MPE [2]: 28%
- Emax [3]: 83.9%
- MPE [4]: 90%
- MPE [5]: 75.1%
- MPE [6]: 50.4%
- EC50 [7]: 20 nM
- EC50 [8]: 2170 nM

SMILES: CN1C(=O)CNC(=O)[C@H](NC(=O)[C@@H](N)Cc2ccc(O)cc2)CCCCNC(=O)C[C@H](C(=O)N2CCC[C@H]2C(N)=O)NC(=O)[C@@H]1Cc1ccccc1
- Emax [1]: 90.7%
- Activity [9]: Active
- Activity [10]: Active
- Activity [11]: Active
- Emax [3]: 121%
- Activity [12]: Active
- Activity [13]: inactive
- Activity [14]: inactive
- Activity [15]: inactive
- Emax [16]: 93.7%
- Activity [17]: inactive
- Activity [18]: inactive

SMILES: NC(=O)[C@@H]1CCCCN1C(=O)[C@H]1CC(=O)NCCCC[C@@H](NC(=O)[C@@H](N)Cc2ccc(O)cc2)C(=O)NCC(=O)N[C@@H](Cc2ccccc2)C(=O)N1
- MPE [19]: 86.9%
- MPE [20]: 56.6%
- Emax [1]: 107%
- Activity [9]: Active
- ED50 [21]: 0.0007 µmol/kg
- Activity [22]: inactive
- MPE [23]: 73.1%
- Activity [11]: inactive
- Emax [3]: 101%
- MPE [24]: 91.2%
- ED50 [25]: 0.0055 µmol/kg
- Activity [12]: Active
- half-life at 0.01 mol/L [26]: 18.5 days
- Activity [13]: inactive
- EC50 ([7]; cho-k1): 0.2 nM
- Activity [14]: inactive
- Activity [15]: inactive
- Emax [16]: 99.5%
- Activity [17]: Active
- EC50 ([8]; cho-k1): 0.9 nM
- EC50 [27]: 214 nM

SMILES: Cc1cc(O)cc(C)c1C[C@H](N)C(=O)N[C@@H]1CCCCNC(=O)C[C@@H](C(=O)N2CCC[C@@H]2C(N)=O)NC(=O)[C@H](Cc2ccccc2)NC(=O)CNC1=O
- MPE [28]: 73.4%
- MPE [29]: 90.5%
- MPE [30]: 75%
- MPE [31]: 44.5%
